# Results: article PMC3420360 (Bioorganic & medicinal chemistry letters, 2010)
# Columns and labels:
# rat TRPV1 [1] = target: T1, rat TRPV1 (Rattus norvegicus, UniProt O35433); assay: functional 45Ca2+ uptake assay, agonism; format: cell-based; conditions: for functional pattern of agonism/antagonism: 45Ca2+ uptake, rat TRPV1 in CHO cells, result in words; for fold less potent than RTX for functional activity: agonism EC50 versus RTX
# rat TRPV1 [2] = target: T1, rat TRPV1; format: cell-based; conditions: Ki(ant) versus 5'-iodo RTX under the same assay conditions
# T1 sequence (O35433 whole entry): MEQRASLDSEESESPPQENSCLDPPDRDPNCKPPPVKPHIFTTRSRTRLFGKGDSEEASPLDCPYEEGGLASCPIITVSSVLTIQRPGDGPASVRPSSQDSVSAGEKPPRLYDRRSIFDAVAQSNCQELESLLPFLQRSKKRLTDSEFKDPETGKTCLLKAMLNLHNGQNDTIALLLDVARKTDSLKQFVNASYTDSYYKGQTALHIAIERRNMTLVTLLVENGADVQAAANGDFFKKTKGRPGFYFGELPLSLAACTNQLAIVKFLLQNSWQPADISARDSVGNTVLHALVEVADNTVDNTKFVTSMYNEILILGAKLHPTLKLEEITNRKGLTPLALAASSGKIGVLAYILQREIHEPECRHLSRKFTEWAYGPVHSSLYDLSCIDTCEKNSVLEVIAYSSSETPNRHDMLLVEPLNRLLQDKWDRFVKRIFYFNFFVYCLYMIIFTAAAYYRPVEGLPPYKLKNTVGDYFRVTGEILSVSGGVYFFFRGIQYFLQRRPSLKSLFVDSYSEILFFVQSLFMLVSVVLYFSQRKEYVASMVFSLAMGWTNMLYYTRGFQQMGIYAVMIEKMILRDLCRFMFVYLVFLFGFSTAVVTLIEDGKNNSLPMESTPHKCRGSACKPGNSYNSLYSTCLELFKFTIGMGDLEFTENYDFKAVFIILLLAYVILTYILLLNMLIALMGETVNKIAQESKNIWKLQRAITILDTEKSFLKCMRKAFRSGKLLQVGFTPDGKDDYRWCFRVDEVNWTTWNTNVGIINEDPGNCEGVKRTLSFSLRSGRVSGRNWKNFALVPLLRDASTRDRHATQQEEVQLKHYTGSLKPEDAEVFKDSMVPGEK
Structure (SMILES),functional pattern of agonism/antagonism (rat TRPV1 [1]),also measured
"C=C(C)[C@@]12C[C@@H](C)C34OC(Cc5ccccc5)(OC1[C@@H]3C=C(COC(=O)Cc1cc(I)c(O)c(OC)c1)C[C@]1(O)C(=O)C(C)=C[C@@H]41)O2 (some centres unmarked) [compound 2, 5-iodo RTX, reference compound]",full antagonist,–
C=C(C)[C@@]12C[C@@H](C)C34OC(Cc5ccccc5)(OC1[C@@H]3C=C(COC(=O)Cc1cc(F)c(O)c(OC)c1)C[C@]1(O)C(=O)C(C)=C[C@@H]41)O2 (some centres unmarked) [compound 31],full agonists,fold less potent than RTX for functional activity (rat TRPV1 [1]): 9 fold
C=C(C)[C@@]12C[C@@H](C)C34OC(Cc5ccccc5)(OC1[C@@H]3C=C(COC(=O)Cc1cc(Cl)c(O)c(OC)c1)C[C@]1(O)C(=O)C(C)=C[C@@H]41)O2 (some centres unmarked) [compound 32],full agonists,fold less potent than RTX for functional activity (rat TRPV1 [1]): 21 fold
C=C(C)[C@@]12C[C@@H](C)C34OC(Cc5ccccc5)(OC1[C@@H]3C=C(COC(=O)Cc1cc(Br)c(O)c(OC)c1)C[C@]1(O)C(=O)C(C)=C[C@@H]41)O2 (some centres unmarked) [compound 33],partial antagonist,–
C=C(C)[C@@]12C[C@@H](C)C34OC(Cc5ccccc5)(OC1[C@@H]3C=C(COC(=O)Cc1cc(Br)cc(Br)c1)C[C@]1(O)C(=O)C(C)=C[C@@H]41)O2 (some centres unmarked) [compound 35],full agonist,–
"C=C(C)[C@@]12C[C@@H](C)C34OC(Cc5ccccc5)(OC1[C@@H]3C=C(COC(=O)Cc1ccc(N)c(OC)c1)C[C@]1(O)C(=O)C(C)=C[C@@H]41)O2 (some centres unmarked) [compound 36, 4-amino RTX]",potent full agonism,fold less potent than RTX (Ki and EC50) (rat TRPV1 [1]; both binding Ki and agonism EC50 compared with RTX): 2–3 fold
C=C(C)[C@@]12C[C@@H](C)C34OC(Cc5ccccc5)(OC1[C@@H]3C=C(COC(=O)Cc1cc(F)c(N)c(OC)c1)C[C@]1(O)C(=O)C(C)=C[C@@H]41)O2 (some centres unmarked) [compound 37],full agonist,fold less potent than the parent 36 (agonism) (rat TRPV1 [1]; agonism EC50 versus 4-amino RTX (36)): 2.5 fold
C=C(C)[C@@]12C[C@@H](C)C34OC(Cc5ccccc5)(OC1[C@@H]3C=C(COC(=O)Cc1cc(Cl)c(N)c(OC)c1)C[C@]1(O)C(=O)C(C)=C[C@@H]41)O2 (some centres unmarked) [compound 38],partial antagonist,–
"C=C(C)[C@@]12C[C@@H](C)C34OC(Cc5ccccc5)(OC1[C@@H]3C=C(COC(=O)Cc1cc(Br)c(N)c(OC)c1)C[C@]1(O)C(=O)C(C)=C[C@@H]41)O2 (some centres unmarked) [compound 39, 5-bromo-4-amino RTX]",full antagonist,fold more potent than I-RTX as antagonist (rat TRPV1 [2]): 4 fold
